In ChEMBL document CHEMBL1629569, “Widespread dissemination of aminoglycoside resistance genes armA and rmtB in Klebsiella pneumoniae isolates in Taiwan producing CTX-M-type extended-spectrum beta-lactamases” (2009):
≈ marks a conversion by molar mass, not a printed value.

Experiments:
Assay type in all cases: functional
Klebsiella pneumoniae [1] = assay: Antimicrobial activity against ESBL-producing Klebsiella pneumoniae clinical isolate assessed as susceptible isolates
Klebsiella pneumoniae [2] = assay: Antimicrobial activity against ESBL-producing Klebsiella pneumoniae clinical isolate by broth microdilution method
Klebsiella pneumoniae [3] = assay: Antimicrobial activity against ESBL-producing Klebsiella pneumoniae clinical isolate assessed as resistant isolates

Compound | Activity (Klebsiella pneumoniae [1]) | MIC50 (Klebsiella pneumoniae [2]) | MIC90 (Klebsiella pneumoniae [2]) | Activity (Klebsiella pneumoniae [3])
CC1(C)S[C@@H]2[C@H](NC(=O)[C@H](N)c3ccccc3)C(=O)N2[C@H]1C(=O)O [AMPICILLIN] | 0 isolates | > 64 µg/mL | > 64 µg/mL | 235 isolates
NCC[C@H](O)C(=O)N[C@@H]1C[C@H](N)[C@@H](O[C@H]2O[C@H](CN)[C@@H](O)[C@H](O)[C@H]2O)[C@H](O)[C@H]1O[C@H]1O[C@H](CO)[C@@H](O)[C@H](N)[C@H]1O [AMIKACIN] | 106 isolates | 32 µg/mL (≈ 54.6 µM) | 64 µg/mL (≈ 109 µM) | 102 isolates
CO/N=C(\C(=O)N[C@@H]1C(=O)N2C(C(=O)O)=C(COC(C)=O)CS[C@H]12)c1csc(N)n1 [CEFOTAXIME] | 12 isolates | 64 µg/mL (≈ 141 µM) | 64 µg/mL (≈ 141 µM) | 146 isolates
CO[C@@]1(NC(=O)Cc2cccs2)C(=O)N2C(C(=O)O)=C(COC(N)=O)CS[C@@H]21 [CEFOXITIN] | 102 isolates | 16 µg/mL (≈ 37.4 µM) | 32 µg/mL (≈ 74.9 µM) | 95 isolates
CC(C)(O/N=C(\C(=O)N[C@@H]1C(=O)N2C(C(=O)[O-])=C(C[n+]3ccccc3)CS[C@H]12)c1csc(N)n1)C(=O)O [CEFTAZIDIME] | 38 isolates | 32 µg/mL (≈ 58.5 µM) | 32 µg/mL (≈ 58.5 µM) | 158 isolates
C[C@@H](O)[C@H]1C(=O)N2C(C(=O)O)=C(SCCNC=N)C[C@H]12 [IMIPENEM ANHYDROUS] | 230 isolates | 0.25 µg/mL (≈ 0.835 µM) | 2 µg/mL (≈ 6.68 µM) | 2 isolates
GENTAMICIN | 21% | 16 µg/mL | 16 µg/mL | –
